What was measured:
[1] = 50% lethal concentration in uninfected MT4 cells (MTT); assay type: cell-based; conditions: human, read-out: LC50
Excerpt: (§1) The anti-HIV activity of the compound of the invention can be determined in MT4 cells according to the following procedure. MT4 cells were infected with cell-free supernatant of HIVIIIB (previously frozen with known 50% tissue culture infectious dose (TCID50) at 0.003 multiplicity of infection (MOI) for one hour. After one hour infection, cells were washed twice to remove residual viruses, resuspended in culture media and seeded into 96-well tissue culture plates at 1x10^4 cells per well with various half-log dilutions of compounds. Uninfected cells are included as toxicity and cell controls. RPMI 1640 media (Gibco ) with 10% fetal bovine serum were used as culture media. Various concentrations of human serum (Sigma) 50%, 25% and 12.5% were added to culture media resulting in final concentration of 60%, 35% and 22.5% total serum. All assay plates were incubated in 37 deg. cent. incubator for 5 days. MTT (sigma, 5 mg/ml stock in PBS) was added to all wells at 25 ul per well, incubate for 4 hours. 20%SDS with 0.02 N HCl in water was added at 50 ul per well to lyse cellls. Plates incubated overnight for complete lyses were read on a microtitre plate reader at 570/650 nm wavelengths to determine cell optical density (O.D.). Raw data were analysed for percent inhibition by the following formula: (O.D. test well - O.D. virus control)/(O.D. cell control -O.D. virus control)x100 [formula] The 50% effective concentration (EC50) was calculated by the median effect equation (Chou, 1975,Proc. Int. Cong. Pharmacol. 6th p. 619) to determine the efficacy of compound. The 50% lethal concentration (LC50) was calculated using uninfected MT4 cells.
(§2) Under these conditions, the following data were obtained (n = 4 duplicate determinations: Table 2

[2] = target: T1, HIV protease (Human immunodeficiency virus type 1 group M subtype B, UniProt P04585); experiment: Fluorogenic Assay for Screening Inhibitors of HIV Protease; assay type: biochemical; conditions: Inhibitor Concentration 0.5 nanomolar; read-out: Percent Inhibition
T1 construct: HIV protease consists of two identical subunits, each of which has 99 amino acid residues
Protocol: The inhibitory potency of the compound of the invention can be determined by the following method.
The compound of the invention is dissolved in DMSO and a small aliquot further diluted with DMSO to 100 times the final concentration desired for testing. The reaction is carried out in a 6 X 50 mm tube in a total volume of 300 microliters. The final concentrations of the components in the reaction buffer are: 125 mM sodium acetate, 1 M sodium chloride, 5 mM dithiothreitol, 0.5 mg/ml bovine serum albumin, 1.3 µM fluorogenic substrate, 2% (v/v) dimethylsulfoxide, pH 4.5. After addition of inhibitor, the reaction mixture is placed in the fluorometer cell holder and incubated at 30°C for several minutes. The reaction is initiated by the addition of a small aliquot of cold HIV protease. The fluorescence intensity (excitation 340 nm, emmision 490 nM) is recorded as a function of time. The reaction rate is determined for the first six to eight minutes. The observed rate is directly proportional to the moles of substrate cleaved per unit time. The percent inhibition is 100 X (1 - (rate in presence of inhibitor)/(rate in absence of inhibitor)).
Fluorogenic substrate: Dabcyl-Gaba-Ser-Gln-Asn-Tyr-Pro-lle-Val-Gln-EDANS wherein DABCYL = 4-(4-dimethylamino-phenyl)azobenzoic acid, Gaba = γ-aminobutyric acid, and EDANS = 5-((2-aminoethyl)amino)-naphthalene-1-sulfonic acid.

[3] = test system: HIVIIIB; experiment: Antiviral activity (anti-HIV activity) in MT4 cells, MTT readout; assay type: cell-based; conditions: Human immunodeficiency virus 1, MT4, 120 h, read-out: IC50 (µM, 0% plasma)
Excerpt: as §1, §2

SMILES | CC50 at 120 h [1] [nM] | inhibition at 0.0005 µM [2] [%] | IC50 [3] [µM]
Cc1cccc(C)c1/C=C/C(=O)N[C@@H](Cc1ccccc1)[C@@H](O)C[C@H](Cc1ccccc1)NC(=O)[C@H](C(C)C)N1CCCNC1=O [Example 19E] | 18000 | 68.5 | 0.395
Cc1cccc(C)c1OCC(=O)N[C@@H](Cc1ccccc1)[C@@H](O)C[C@H](Cc1ccccc1)NC(=O)[C@H](C(C)C)N1CCC(=O)NC1=O [Example 25E, (2S,3S,5S)-2-(2,6-Dimethylphenoxyacetyl) amino-3-hydroxy-5-[2S-(1-tetrahydro-pyrimid-2,4-dionyl)-3-methylbutanoyl]amino-1,6-diphenylhexane] | 22900 | 100 | 0.012
Cc1cc(C)c(OCC(=O)N[C@@H](Cc2ccccc2)[C@@H](O)C[C@H](Cc2ccccc2)NC(=O)[C@H](C(C)C)N2CCNC2=O)c(C)c1 [Example 11B, (2S,3S,5S)-2-(2,4,6-Trimethylphenoxyacetyl) amino-3-hydroxy-5-(2S-(1-imidazolidin-2-onyl)-3-methylbutanoyl) amino-1,6-diphenylhexane] | 18200 | 91.1 | 0.19
Cc1cccc(C)c1OCC(=O)N[C@@H](Cc1ccccc1)[C@@H](O)C[C@H](NC(=O)[C@H](C(C)C)N1CCCNC1=O)C(C)C [Example 27D, (2S,3S,5S)-2-(2,6-Dimethylphenoxyacetyl) amino-3-hydroxy-5-[2S-(1-tetrahydro-pyrimid-2-onyl)-3-methylbutanoyl]amino-1-phenyl-6-methylheptane] | 56200 | 92.9 | 0.03
CC(C)[C@@H](C(=O)N[C@@H](Cc1ccccc1)C[C@H](O)[C@H](Cc1ccccc1)NC(=O)O[C@H]1CO[C@H]2OCC[C@H]21)N1CCNC1=O [Example 5, (2S,3S,5S)-2-[(3R,3aS,6aR)-Bis-tetrahydrofuranyloxy] amino-3-hydroxy-5-[2S-(1-imidazolidin-2-onyl)-3-methylbutanoyl] amino-1,6-diphenylhexane] | > 100000 | 80.8 | 0.368
Cc1cccc(C)c1OCC(=O)N[C@@H](Cc1ccccc1)[C@@H](O)C[C@H](Cc1ccccc1)NC(=O)[C@H](C(C)C)N1CC=NNC1=O [Example 30B, (2S,3S,5S)-2-(2,6-Dimethylphenoxyacetyl) amino-3-hydroxy-5[2S-(4-aza-4,5-dehydro-1-pyrimid-2-onyl)-3-methyl-butanoyl]amino-1,6-diphenylhexane] | 18000 | 91 | 0.003
Cc1ccnc(C)c1OCC(=O)N[C@@H](Cc1ccccc1)[C@@H](O)C[C@H](Cc1ccccc1)NC(=O)[C@@H](N1CCNC1=O)C(C)(C)C [Example 14D, (2S,3S,5S)-2-(2,4-Dimethyl-pyridin-3-oxy-acetyl) amino-3-hydroxy-5-(2S-(1-imidazolidin-2-onyl)-3,3-dimethylbutanoyl) amino-1,6-diphenylhexane] | > 100000 | 52.7 | 0.053
CC(C)[C@@H](C(=O)N[C@@H](Cc1ccccc1)C[C@H](O)[C@H](Cc1ccccc1)NC(=O)O[C@H]1CO[C@H]2OCC[C@H]21)N1CCN(C)C1=O [Example 4F, (2S,3S,5S)-2-[(3R, 3aS, 6aR)-Bis-tetrahydrofuranyloxy] amino-3-hydroxy-5-[2S-(3-methyl-1-imidazolidin-2-onyl)-3-methylbutanoyl] amino-1,6-diphenylhexane] | > 100000 | 49.7 | 0.101
